Source: the supplement of paper PMC7214452
Counter-ions that a name gives are not always drawn.

Key:
Test in all cases: normalized area under the dose-response curve (viability relative to DMSO control) (fraction); higher = less sensitive (more viable cells)
Details in all cases: exposure time not given
[1] = test system: LP1 (cancer type: MM)
Method: (§1)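 25 myeloma and 15 non-Hodgkin lymphoma cell lines were exposed to each of 76 drugs as 7-point log dilutions (0.01 nM–10 µM) in duplicate. Viability was read with CellTiter-Glo and normalised to DMSO (0.1%) and staurosporine (10 µM) plate controls. Normalised AUC was calculated by the trapezoidal method relative to the negative control.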

[2] = test system: NCI-H929 (cancer type: MM)
Method: as §1

[3] = test system: RPMI 8226 (cancer type: MM)
Method: as §1

[4] = test system: SKMM2 (cancer type: MM)
Method: as §1

[5] = test system: KMS12PE (cancer type: MM)
Method: as §1

[6] = test system: Se-Ax (cancer type: TCL)
Method: as §1

[7] = test system: OCI-MY7 (cancer type: MM)
Method: as §1

[8] = test system: SU-DHL2 (cancer type: DLBCL)
Method: as §1

[9] = test system: KMS34 (cancer type: MM)
Method: as §1

[10] = test system: EJM (cancer type: MM)
Method: as §1

[11] = test system: MM1.S (cancer type: MM)
Method: as §1

[12] = test system: JVM2 (cancer type: Mantle)
Method: as §1

[13] = test system: FR4 (cancer type: MM)
Method: as §1

[14] = test system: SR-786 (cancer type: TCL)
Method: as §1

[15] = test system: KMS18 (cancer type: MM)
Method: as §1

[16] = test system: SU-DHL1 (cancer type: TCL)
Method: as §1

[17] = test system: KMS28PE (cancer type: MM)
Method: as §1

[18] = test system: HuT 78 (cancer type: TCL)
Method: as §1

[19] = test system: JeKo-1 (cancer type: Mantle)
Method: as §1

[20] = test system: OCI-MY5 (cancer type: MM)
Method: as §1

[21] = test system: OCI-MY5/Vec (cancer type: MM)
Method: as §1

[22] = test system: Granta-519 (cancer type: Mantle)
Method: as §1

[23] = test system: OCI-MY5/CRBN (cancer type: MM)
Method: as §1

[24] = test system: L363 (cancer type: MM)
Method: as §1

[25] = test system: Mino (cancer type: Mantle)
Method: as §1

[26] = test system: MM1.R (cancer type: MM)
Method: as §1

[27] = test system: JJN3 (cancer type: MM)
Method: as §1

[28] = test system: My-La (cancer type: TCL)
Method: as §1

[29] = test system: KMS26 (cancer type: MM)
Method: as §1

[30] = test system: OCI-LY19 (cancer type: DLBCL)
Method: as §1

[31] = test system: Karpas-299 (cancer type: TCL)
Method: as §1

[32] = test system: KMS28BM (cancer type: MM)
Method: as §1

[33] = test system: AMO1 (cancer type: MM)
Method: as §1

[34] = test system: OPM2 (cancer type: MM)
Method: as §1

[35] = test system: KMS11 (cancer type: MM)
Method: as §1

[36] = test system: SU-DHL6 (cancer type: DLBCL)
Method: as §1

[37] = test system: XG2 (cancer type: MM)
Method: as §1

[38] = test system: OCI-LY3 (cancer type: DLBCL)
Method: as §1

[39] = test system: U266 (cancer type: MM)
Method: as §1

[40] = test system: OCI-LY1 (cancer type: DLBCL)
Method: as §1

Row | Structure (SMILES) | normalized area under the dose-response curve [1] | normalized area under the dose-response curve [2] | normalized area under the dose-response curve [3] | normalized area under the dose-response curve [4] | normalized area under the dose-response curve [5] | normalized area under the dose-response curve [6] | normalized area under the dose-response curve [7] | normalized area under the dose-response curve [8] | normalized area under the dose-response curve [9] | normalized area under the dose-response curve [10] | normalized area under the dose-response curve [11] | normalized area under the dose-response curve [12] | normalized area under the dose-response curve [13] | normalized area under the dose-response curve [14] | normalized area under the dose-response curve [15] | normalized area under the dose-response curve [16] | normalized area under the dose-response curve [17] | normalized area under the dose-response curve [18] | normalized area under the dose-response curve [19] | normalized area under the dose-response curve [20] | normalized area under the dose-response curve [21] | normalized area under the dose-response curve [22] | normalized area under the dose-response curve [23] | normalized area under the dose-response curve [24] | normalized area under the dose-response curve [25] | normalized area under the dose-response curve [26] | normalized area under the dose-response curve [27] | normalized area under the dose-response curve [28] | normalized area under the dose-response curve [29] | normalized area under the dose-response curve [30] | normalized area under the dose-response curve [31] | normalized area under the dose-response curve [32] | normalized area under the dose-response curve [33] | normalized area under the dose-response curve [34] | normalized area under the dose-response curve [35] | normalized area under the dose-response curve [36] | normalized area under the dose-response curve [37] | normalized area under the dose-response curve [38] | normalized area under the dose-response curve [39] | normalized area under the dose-response curve [40]
1 | CC(C)(C)c1nc(-c2cccc(NS(=O)(=O)c3c(F)cccc3F)c2F)c(-c2ccnc(N)n2)s1 [Dabrafenib mesylate] | 0.836 | 0.78 | 0.851 | 0.827 | 0.75 | 0.775 | 0.81 | 0.889 | 0.84 | 0.775 | 0.9 | 0.587 | 0.939 | 0.851 | 0.735 | 0.833 | 0.85 | 0.812 | 0.858 | 0.733 | 0.858 | 0.898 | 0.906 | 0.787 | 0.775 | 0.84 | 0.804 | 0.908 | 0.972 | 0.861 | 0.752 | 0.979 | 0.643 | 0.829 | 0.831 | 0.882 | 0.932 | 0.89 | 0.754 | 0.984
2 | Cc1nc(Nc2ncc(C(=O)Nc3c(C)cccc3Cl)s2)cc(N2CCN(CCO)CC2)n1 [Dasatinib] | 0.712 | 0.74 | 0.739 | 0.906 | 0.48 | 0.82 | 0.82 | 0.894 | 0.612 | 0.702 | 0.75 | 0.611 | 0.816 | 0.843 | 0.765 | 0.862 | 0.731 | 0.768 | 0.778 | 0.701 | 0.79 | 0.783 | 0.824 | 0.813 | 0.745 | 0.76 | 0.581 | 0.841 | 0.868 | 0.718 | 0.875 | 0.994 | 0.72 | 0.802 | 0.686 | 0.754 | 0.746 | 0.727 | 0.616 | 0.66
3 | Nc1ncn([C@H]2C[C@H](O)[C@@H](CO)O2)c(=O)n1 [Decitabine] | 0.88 | 0.89 | 0.914 | 0.933 | 0.9 | 0.832 | 0.91 | 0.94 | 0.702 | 0.916 | 0.89 | 0.879 | 0.937 | 0.854 | 0.97 | 0.962 | 0.778 | 0.958 | 0.644 | 0.773 | 0.93 | 0.978 | 0.888 | 0.82 | 0.818 | 0.85 | 0.912 | 0.957 | 0.897 | 0.84 | 0.912 | 0.955 | 0.836 | 0.835 | 0.871 | 0.844 | 0.896 | 0.883 | 0.804 | 0.912
4 | C[C@@H]1C[C@H]2[C@@H]3CCC4=CC(=O)C=C[C@]4(C)[C@@]3(F)[C@@H](O)C[C@]2(C)[C@@]1(O)C(=O)CO [Dexamethasone] | 0.613 | 0.79 | 0.777 | 0.648 | 0.96 | 0.759 | 0.76 | 0.686 | 0.487 | 0.777 | 0.66 | 0.799 | 0.933 | 0.972 | 0.788 | 0.907 | 0.735 | 0.873 | 0.875 | 0.725 | 0.814 | 0.925 | 0.928 | 0.756 | 0.86 | 0.94 | 0.983 | 0.883 | 0.773 | 0.947 | 0.852 | 0.904 | 0.762 | 0.826 | 0.805 | 0.8 | 0.863 | 0.963 | 0.818 | 0.924
5 | CCc1cnn2c(NCc3ccc[n+]([O-])c3)cc(N3CCCC[C@H]3CCO)nc12 [Dinaciclib] | 0.0551 | 0.04 | 0.0467 | 0.628 | 0.04 | 0.31 | 0.02 | 0.393 | 0.124 | 0.0534 | 0.03 | 0.259 | 0.0504 | 0.0218 | 0.0366 | 0.0533 | 0.169 | 0.0209 | 0.0614 | 0.0272 | 0.0029 | 0.625 | 0.0017 | 0.0142 | 0.392 | 0.03 | 0.0469 | 0.582 | 0.0286 | 0.414 | 0.0458 | 0.0793 | 0.03 | 0.0465 | 0.084 | 0.667 | 0.0928 | 0.148 | 0.0357 | 0.0794
6 | Cc1ccc(-n2nc(C(C)(C)C)cc2NC(=O)Nc2ccc(OCCN3CCOCC3)c3ccccc23)cc1 [Doramapimod] | 0.87 | 0.87 | 0.917 | 0.969 | 0.89 | 0.736 | 0.89 | 0.901 | 0.737 | 0.872 | 0.8 | 0.687 | 0.932 | 0.919 | 0.926 | 0.737 | 0.842 | 0.812 | 1.04 | 0.693 | 0.916 | 0.938 | 0.961 | 0.801 | 0.97 | 0.88 | 0.726 | 0.907 | 0.787 | 0.645 | 0.916 | 0.887 | 0.842 | 0.834 | 0.782 | 0.858 | 0.806 | 0.9 | 0.634 | 0.999
7 | CC(C)(O)CNc1nc(Nc2ccnc(C(F)(F)F)c2)nc(-c2cccc(C(F)(F)F)n2)n1 [Enasidenib (Agios ag-221)] | 0.772 | 0.92 | 0.92 | 0.905 | 0.9 | 0.837 | 0.81 | 0.918 | 0.853 | 0.865 | 0.8 | 0.787 | 0.944 | 0.908 | 0.772 | 0.888 | 0.819 | 0.86 | 0.881 | 0.723 | 0.847 | 0.975 | 0.903 | 0.802 | 0.877 | 0.81 | 0.822 | 0.947 | 0.887 | 0.972 | 0.9 | 0.894 | 0.864 | 0.749 | 0.95 | 0.92 | 0.899 | 1 | 0.914 | 0.957
8 | C#Cc1cccc(Nc2ncnc3cc(OCCOC)c(OCCOC)cc23)c1 [Erlotinib hydrochloride] | 0.869 | 0.88 | 0.903 | 0.922 | 0.8 | 0.84 | 0.84 | 0.839 | 0.805 | 0.91 | 0.86 | 0.665 | 0.877 | 0.962 | 0.84 | 0.87 | 0.871 | 0.756 | 0.886 | 0.796 | 0.861 | 0.938 | 0.878 | 0.814 | 0.95 | 0.84 | 0.878 | 0.972 | 0.928 | 0.864 | 0.907 | 0.847 | 0.897 | 0.86 | 0.85 | 0.905 | 0.888 | 0.897 | 0.946 | 0.888
